According to article PMC4558116, “Inhibition of COP9-signalosome (CSN) deneddylating activity and tumor growth of diffuse large B-cell lymphomas by doxycycline” (Oncotarget, 2015):

Target: T1, CSN5 (COP-9 signalosome deneddylase subunit) (Homo sapiens, UniProt Q92905)
T1 construct: gene COPS5; purified CSN complex; with COP9 signalosome (CSN) complex; substrate Nedd8-conjugated SCF^Skp2 (Cullin-1)
Experiment: fluorescence polarization deneddylation assay with purified CSN and Oregon Green-Nedd8-SCF^Skp2
Format: biochemical

T1 sequence (Q92905 2-334): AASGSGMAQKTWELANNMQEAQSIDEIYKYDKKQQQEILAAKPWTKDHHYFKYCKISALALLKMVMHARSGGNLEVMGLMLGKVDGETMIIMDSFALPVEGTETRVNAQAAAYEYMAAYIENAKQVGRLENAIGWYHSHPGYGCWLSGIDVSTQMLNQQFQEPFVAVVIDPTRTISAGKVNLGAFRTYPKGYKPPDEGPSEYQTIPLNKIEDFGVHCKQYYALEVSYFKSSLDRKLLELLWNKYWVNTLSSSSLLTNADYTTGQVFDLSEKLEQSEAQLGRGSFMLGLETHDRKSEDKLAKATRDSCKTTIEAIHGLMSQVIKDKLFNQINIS

IC50: ~110 µM
Structure (SMILES): C[C@H]1c2cccc(O)c2C(=O)C2=C(O)[C@]3(O)C(=O)C(C(N)=O)=C(O)[C@@H](N(C)C)[C@@H]3[C@@H](O)[C@@H]21 [doxycycline]
